The values below come from paper PMC2605449, “Modification of carbonic anhydrase II with acetaldehyde, the first metabolite of ethanol, leads to decreased enzyme activity” (BMC Biochemistry, 2008).

The structures appear in SMILES notation.

This experiment deals with T1, recombinant human CA II (carbonic anhydrase isozyme II) (Homo sapiens, UniProt P00918, S2A).
T1 construct: gene CA2; recombinant in E. coli, full length, initiator Met removed, second residue Ser changed to Ala by cloning
Kind of experiment: end-point titration (Maren) with spectrophotometric colour determination. It is filed as biochemical. The following applies: covalent; pretreated […] h at […] °C, […] NaBH3(CN) added after […] h (N-ethyllysine adducts); CO2 substrate, ice-cold.

On to `CC=O` [acetaldehyde], for which the “% reduction in activity at 100 mM” value is 23.7%.
